Here are results for 1 compound from US20120178971A1, “Process for Isolation of a Novel Compound 5,8A-DI-1-Propyl 1-Octahydronapthalen-1-(2H) One,Trachyspermum AMI (Ajowan Caraway) Seeds” (ALIGARH MUSLIM UNIVERSITY, priority 2011, published 2012).

Converted amounts (≈) assume the structure as drawn.

The subject of experiment [1] is Streptococcus mutans. In words: Sucrose dependent cell adherence of Streptococcus mutans. It counts as cell-based. The text has this:
FIG. 2: Inhibitory effect of the compound on the extent of sucrose dependent cell adherence of Streptococcus mutans. The % cell adherence is the relative amount (%) of adherent cells at different concentrations of the compound as compared to the cells attached in the absence of any compound. Each value is an average of triplicate assays and each bar indicates ±SD (n=3).

For experiment [2], the system named is Streptococcus mutans biofilm. The experiment can be described thus: Streptococcus mutans biofilm formation. It counts as cell-based. Here is the method: FIG. 3: Inhibitory effect of the compound on the biofilm formed by Streptococcus mutans. The % biofilm formed is the relative (%) of biofilm formed at different concentrations of the compound as compared to that in the absence of any compound. Each value is an average of triplicate assays and each bar indicates ±SD (n=3)
The biofilm formation was assessed using increasing concentration of the compound. […] As observed in the adherence, the inhibitory effect was also found to be in a dose dependent manner.

The subject of experiment [3] is Streptococcus mutans. In words: Cell surface hydrophobicity of Streptococcus mutans. As to conditions: 9.76 μg/ml, compared to untreated condition. Format: cell-based. The source says: FIG. 5: Inhibitory effect of compound on the hyrdophobicity of Streptococcus mutans where all the concentrations were taken in triplicates.
It was shown that the cell surface hydrophobocity of S. mutans is affected following treatment with the compound obtained from Trachyspermum ammi as shown in figure.

Experiment [4] concerns Streptococcus mutans. In words: Determination of MIC. It counts as cell-based. The conditions noted are these: against Streptococcus mutans.
Experiment [5] deals with Streptococcus mutans. The experiment can be described thus: Inhibition of acid production (pH of culture medium). It counts as cell-based. The procedure: […] At a concentration of 78.13 μg/ml, there is maximum reduction in acid production as is evident by an increase in pH from 4.7 (control) to 7.5.
The subject of experiment [6] is crude GTF of Streptococcus mutans. The experiment can be described thus: Inhibition of water insoluble glucan synthesis. As to conditions: 4.88 μl/ml. It counts as biochemical. The procedure: FIG. 6: Inhibitory effects of the compound on insoluble glucan synthesis by crude GTF of Streptococcus mutans. The % insoluble glucan synthesis is the relative amount (%) ±SD (n=3)
The influence of different concentrations was assessed for the synthesis of insoluble glucan.

Experiment [7] concerns Streptococcus mutans biofilm. The experiment can be described thus: Confocal laser scanning microscopy of Streptococcus mutans biofilm. As to conditions: 78.13 μ/ml, 24 h incubation. Format: cell-based. Here is the method:
FIG. 4: CLSM images of Streptococccus mutans biofilm formed in the presence or absence of the compound after 24 h incubation. The results are expressed as the means ±standard deviations of triplicate assays.
The biofilm of Streptococcus mutans was analyzed under the confocal laser scanning microscope to observe the changes in its morphology as shown in FIG. 4. […] The cells in the treated sample were more spread out and dispersed. Each panel of the image is a representative view of 141.145 μm by 141.145 μm along the xy axis. The xy analysis provides the biofilm surface coverage, while the z-section analyses establish the thickness of the biofilm. The control cells have biofilms that are clumped and less spread along the xy lane, show a thickness of 19.74±0.5 μm. […] The cells wee individually scattered over the surface rather than in any arrangement.

Experiment [8] relates to Streptococcus mutans. In words: Inhibition of acid production (pH of culture medium). Format: cell-based. This is another data set of the same source.

The term MIC denotes the smallest concentration in the dilution series that meets the test's criterion for growth inhibition. A higher MIC goes with a need for much substance.

In the case of `CCCC1CCCC2(CCC)C(=O)CCCC12` (centres unmarked) [the compound, 5,8a-di-1 propyl-octahydronapthalen-1-(2H)-one], the reduction in adherence in the experiment on Streptococcus mutans [1] (9.77 μg/ml) is 30%. Also, the “least concentration to give at least 50% inhibition of adherence” value with Streptococcus mutans [1] (sucrose dependent adherence) amounted to 39.06 µg/mL. Further, the biofilm formation result is listed as “inhibited the biofilm formation” in experiment [2] (78.13 μg/ml) and “completely inhibited the biofilm formation” in experiment [2] (156.25 μg/ml (MIC)). For the same compound, the cell surface hydrophobicity result with Streptococcus mutans [3] is recorded as “drastically reduced the cell surface hydrophobicity to more than half”. In addition, in the experiment with Streptococcus mutans [4], the minimal inhibitory concentration (MIC) amounted to 156 µg/mL (≈ 661 µM). Moreover, the “pH ± SD (after 24 h)” value is 4.77 ± 1.69 in the experiment with Streptococcus mutans [5] (2.44 μg/ml); 4.84 ± 1.20 in the experiment on Streptococcus mutans [5] (4.88 μg/ml); 5.49 ± 1.05 with Streptococcus mutans [5] (9.76 μg/ml); 5.62 ± 1.96 in the experiment with Streptococcus mutans [5] (19.53 μg/ml); 5.68 ± 6.78 in the experiment with Streptococcus mutans [5] (39.01 μg/ml); 6.48 ± 5.97 in the experiment on Streptococcus mutans [5] (78.13 μg/ml). Further, the “pH ± SD (after 24 h)” value in the experiment on Streptococcus mutans [5] (156.25 μg/ml) is recorded as 7.55 ± 2.65. For the same compound, the “reduction in the synthesis of insoluble glucan” value in experiment [6] is listed as 25%. Moreover, the biofilm morphology result in experiment [7] (CLSM) is reported as “complete absence of clumped cells”. For the same compound, in experiment [7] (CLSM z-section), the “thickness of the biofilm” value is on record as 12.8±0.7 µm. The “pH ± SD (onset)” value in the experiment with Streptococcus mutans [8] (2.44 μg/ml) came out at 7.28 ± 0.09; with Streptococcus mutans [8] (4.88 μg/ml), 7.24 ± 1.33; with Streptococcus mutans [8] (9.76 μg/ml), 7.33 ± 1.11; with Streptococcus mutans [8] (19.53 μg/ml), 7.38 ± 1.91; in the experiment with Streptococcus mutans [8] (39.01 μg/ml) it was 7.43 ± 1.13; in the experiment on Streptococcus mutans [8] (78.13 μg/ml) it was 7.43 ± 0.15. Moreover, the “pH ± SD (onset)” value in the experiment on Streptococcus mutans [8] (156.25 μg/ml) turned out to be 7.38 ± 1.29.
